From ChEMBL document CHEMBL4813909, “Heterocyclic Diamidine DNA Ligands as HOXA9 Transcription Factor Inhibitors: Design, Molecular Evaluation, and Cellular Consequences in a HOXA9-Dependant Leukemia Cell Model” (J Med Chem, 2019)

What was measured:
[1] = Induction of cell death in mouse MigA9 cells harboring mouse Hoxa9 gene assessed as propidium iodide-positive cells at 1 uM incubated for 24 hrs by propidium iodide staining based flow cytometry relative to control; assay type: functional
[2] = Induction of cell cycle arrest in mouse MigA9 cells expressing mouse Hoxa9 assessed as accumulation at S phase at 0.5 uM incubated for 48 hrs by EdU/propidium iodide staining based flow cytometry (reference value: 46.68 +/- 0.21%); assay type: functional
[3] = Induction of cell death in mouse MigA9 cells harboring mouse Hoxa9 gene assessed as propidium iodide-positive cells at 0.5 uM incubated for 48 hrs by propidium iodide staining based flow cytometry (reference value: 8.75 +/- 0.2%); assay type: functional
[4] = Induction of cell cycle arrest in mouse MigA9 cells expressing mouse Hoxa9 assessed as accumulation at G2/M phase at 0.5 uM incubated for 48 hrs by EdU/propidium iodide staining based flow cytometry (reference value: 4.55 +/- 0.16%); assay type: functional
[5] = Induction of cell cycle arrest in mouse MigA9 cells harboring mouse Hoxa9 gene assessed as accumulation at sub-G1 phase at 1 uM incubated for 48 hrs by propidium iodide staining based flow cytometry (reference value: 0.76 +/- 0.1%); assay type: functional
[6] = Induction of cell cycle arrest in mouse MigA9 cells expressing mouse Hoxa9 assessed as accumulation at S phase at 1 uM incubated for 48 hrs by EdU/propidium iodide staining based flow cytometry (reference value: 46.68 +/- 0.21%); assay type: functional
[7] = Induction of cell cycle arrest in mouse MigA9 cells expressing mouse Hoxa9 assessed as accumulation at G2/M phase at 1 uM incubated for 48 hrs by EdU/propidium iodide staining based flow cytometry (reference value: 4.55 +/- 0.16%); assay type: functional
[8] = Induction of cell death in mouse MigA9 cells harboring mouse Hoxa9 gene assessed as propidium iodide-positive cells at 1 uM incubated for 48 hrs by propidium iodide staining based flow cytometry (reference value: 8.75 +/- 0.2%); assay type: functional
[9] = Induction of cell death in mouse MigA9 cells harboring mouse Hoxa9 gene assessed as propidium iodide-positive cells at 0.5 uM incubated for 24 hrs by propidium iodide staining based flow cytometry (reference value: 9.06 +/- 0.53%); assay type: functional
[10] = Induction of cell cycle arrest in mouse MigA9 cells harboring mouse Hoxa9 gene assessed as accumulation at sub-G1 phase at 0.5 uM incubated for 48 hrs by propidium iodide staining based flow cytometry (reference value: 0.76 +/- 0.1%); assay type: functional
[11] = Drug localization in nucleus of mouse MigA9 cells at 20 uM incubated for 2 hrs by TO-PRO-3/propidium iodide staining based by fluorescence microscopy; assay type: ADME, subcellular; conditions: miga9, 2 h
[12] = Induction of cell cycle arrest in mouse MigA9 cells expressing mouse Hoxa9 assessed as accumulation at G0/G1 phase at 1 uM incubated for 48 hrs by EdU/propidium iodide staining based flow cytometry (reference value: 48.77 +/- 0.19%); assay type: functional
[13] = Induction of cell cycle arrest in mouse MigA9 cells expressing mouse Hoxa9 assessed as accumulation at G0/G1 phase at 0.5 uM incubated for 48 hrs by EdU/propidium iodide staining based flow cytometry (reference value: 48.77 +/- 0.19%); assay type: functional
[14] = Induction of cell cycle arrest in mouse MigA9 cells harboring mouse Hoxa9 gene assessed as accumulation at sub-G1 phase at 20 uM incubated for 48 hrs by propidium iodide staining based flow cytometry (reference value: 0.76 +/- 0.1%); assay type: functional
HOXA9 DNA binding site [15] = conditions: dose 0.5 µM
HOXA9 DNA binding site [16] = assay: Binding affinity to hairpin DNA Hoxa9-binding site 5'-biotin-CCATGATTTACCTCTGTAAATCATGG (unknown origin) by surface plasmon resonance; assay type: nucleic-acid assay
[17] = test system: HOXA9 DNA binding site [UNDEFINED MUTATION]
[18] = Cytotoxicity against mouse MigA9 cells harboring mouse Hoxa9 gene incubated for 72 hrs by MTS assay; assay type: functional, cell-based; conditions: MigA9, 72 h
[19] = test system: HOXA9 DNA binding site [UNDEFINED MUTATION]; remark: listed apart in the source
K562 = assay: Anticlonogenic activity in human K562 cells assessed as K562 number at 2.5 uM incubated for 10 days by Methocult-colony forming cell assay relative to control; assay type: functional; conditions: time 10 day
[20] = Induction of cell death in mouse MigA9 cells harboring mouse Hoxa9 gene assessed as propidium iodide-positive cells at 15 uM incubated for 24 hrs by propidium iodide staining based flow cytometry (reference value: 9.06 +/- 0.53%); assay type: functional; conditions: dose 15 µM; time 24 hrs
HOXA9 DNA binding site [21] = conditions: dose 1.0 µM
[22] = Induction of cell death in mouse MigA9 cells harboring mouse Hoxa9 gene assessed as propidium iodide-positive cells at 20 uM incubated for 24 hrs by propidium iodide staining based flow cytometry (reference value: 9.06 +/- 0.53%); assay type: functional; conditions: dose 20 µM; time 24 hrs

SMILES: N=C(Nc1ccc(-c2ccc(-c3ccc(NC(=N)c4ccccn4)cc3)[nH]2)cc1)c1ccccn1
- Activity [1]: 14.43%
- Activity [2]: 46.06%
- Activity [3]: 8.01%
- Activity [4]: 5.5%
- Activity [5]: 1.04%
- Activity [6]: 43.51%
- Activity [7]: 6.34%
- Activity [8]: 17.6%
- Activity [9]: 5.19%
- Activity [10]: 1.23%
- Drug transport [11]: Active
- Activity [12]: 50.15%
- Activity [13]: 48.44%

SMILES: N=C(N)c1cccc(-c2ccc(-c3nc4cc(C(=N)N)ccc4[nH]3)cc2)c1
- Activity [14]: 1.65%
- ΔTm (HOXA9 DNA binding site [15]): 7 °C
- Kd (HOXA9 DNA binding site [16]): 0.0055 µM
- ΔTm [17]: 4 °C
- IC50 [18]: 14.1 µM
- ΔTm [19]: 4 °C
- Activity (K562): 100%
- Activity [20]: 3.87%
- ΔTm (HOXA9 DNA binding site [21]): > 10 °C
- Activity [22]: 5.17%
